How the values were obtained:
[1] = test system: high-fructose diet fed rats; assay: Example 1: in vivo efficacy of 5-LO inhibitors in diet-induced model of hypertriglyceridemia and hypertension (serum TG, FFA, insulin, glucose, body weight); parameters: species or system Sprague-Dawley rats; settings: oral gavage twice a day for 5 days; for effect on serum triglycerides: NDGA 250 mg/kg (p=0.0004), BW 755c 100 mg/kg (p=0.0002), day 0 vs day 5, FIG. 1; for effect on serum insulin levels: NDGA 250 mg/kg (p=0.003); for effect on serum insulin levels / effect on increase in serum free fatty acids during treatment / effect on serum glucose: BW 755c 100 mg/kg; for effect on increase in serum free fatty acids during treatment / effect on serum glucose: NDGA 250 mg/kg
From the text: Male Sprague-Dawley rats weighting 175-200 g were used in these studies. […]. Rats were first maintained on a chow diet for ˜1 wk and then were divided into four groups (7 or 8 animals in each group). Three groups were switched to a high-fructose diet (Harlan Teklad, Madison, Wis.) that provided 60% of total calories as fructose. The fourth group was maintained on normal chow to serve as an overall control group. After 14 days on the high-fructose diet, the degree of hypertriglyceridemia was evaluated by determining the total plasma TG levels. On day 0 of treatment, tail vein blood was collected for baseline measurements of serum TG, glucose, insulin, and FFA. […] All animals were dosed two times a day for 5 days (days 1-5), delivered by oral gavage. On day 5 of treatment (approximately 3 hours after the oral dose) vein blood was collected for measurements of serum TG, glucose, insulin, and FFA. During the treatment period, rats were maintained on their prescribed diets. Body weights were measured on day 0 and day 5.
Serum samples were used to measure TG and glucose concentrations by enzymatic […] methods using Sigma Diagnostic kits (St. Louis, Mo.). Serum insulin concentrations were by RIA using a Linco Rat Insulin RIA kit (St. Charles, Mo.). FFA concentrations were measured using the nonesterified fatty acid (NEFA) C kit by the ACS-ACOD method following the instructions of the manufacturer.
Data was statistically analyzed using paired t-tests to determine significance.

[2] = test system: high fructose fed (HFF) rats; assay: Example 2: effect of lipoxygenase inhibitors on serum metabolic components of HFF rats; format: in vivo, Sprague-Dawley rats; settings: for Cholesterol, Day 15 / Cholesterol, Day 19: serum total cholesterol; for Cholesterol, Day 19 / Glucose, Day 19 / FFA, Day 19 / Insulin, Day 19 / TG, Day 19: Day 19 after 4 days BID oral gavage (NDGA 250 mg/kg, BW 755c 100 mg/kg); for Glucose, Day 19: 3 hours after last dose
Protocol: Male rats were initially divided into HFF or chow (control) groups and maintained for 14 days on the prescribed diet. […] On days 15-19 all groups were treated by oral gavage twice daily with either drug or vehicle. On days 15 and 19 serum was collected for analysis. On day 20, the groups were subdivided to receive either LPS or vehicle (saline). Post-LPS treatment, the animals were sacrificed and their livers were isolated for analysis.
Male Sprague-Dawley rats weighing approximately 180-200 g first maintained on a rat chow diet and then were divided into four groups, three of which were switched to a high-fructose diet (Harlan Teklad, Madison, Wis.) that provided 60% of total calories as fructose (Day 1). On day 15 of treatment, the rats were fasted for 4 hours and tail vein blood was collected for baseline measurements of serum TG, glucose, insulin and free fatty acids (FFA) as previously described (Gowri et al., Am. J. Hypertension, 12: 744-746 (1999)). […] The chow group (diet control) was treated with vehicle. During the treatment regimen the animals were maintained on high-fructose diet. […] On day 20, four animals in each group were injected (iv) with 0.5 mg/kg BW Salmonella enterifdis endotoxin (lipopolysaccharide, LPS) or normal saline under light anaesthesia. After 2 hours, serum was collected for corticosterone measurement, as described previously (Kraemer et al., Endocrinology, 143: 801-806 (2002)), and then the animals were sacrificed and tissues removed, snap-frozen in liquid nitrogen and stored at −80° C. until analyzed. The local committee on animal care approved all animal protocols.
Statistical analysis were performed by either paired or unpaired t-test using GraphPad Prism version 3.00 for Windows, GraphPad Software, San Diego Calif. USA. A difference between groups was considered significant if P was less than 0.05. Normalized Western Blot data were obtained as a ratio of the units measured for phosphorylated protein divided by the units measured for total protein. Statistical analyses were performed on the normalized data.

[3] = background statement; cited from earlier work
diabetic rat model = settings: Babu et al. 1997; cited from earlier work
in vivo animal models = settings: Maya et al. 2000; Scribner et al. 2000; cited from earlier work
[4] = Day 15 = baseline before drug treatment, mean ± S.E., n = 7-8
[5] = serum, Day 15 = baseline before drug treatment, mean ± S.E., n = 7-8

| SMILES | effect on serum triglycerides [1] | effect on serum insulin levels [1] | effect on increase in serum free fatty acids during treatment [1] | effect on serum glucose [1] | effect on serum total cholesterol ([2]; four days BID oral treatment) | Cholesterol, Day 15 [2, 4] | Cholesterol, Day 19 ([2]; mean ± S.E., n = 7-8) | Glucose, Day 15 ([2]; serum, Day 15 = baseline before drug treatment, 4 h fasted, mean ± S.E., n = 7-8) | FFA, Day 15 [2, 5] | Insulin, Day 15 [2, 5] | TG, Day 15 [2, 5] | Glucose, Day 19 ([2]; serum, mean ± S.E., n = 7-8) | FFA, Day 19 ([2]; serum, mean ± S.E., n = 7-8) | Insulin, Day 19 ([2]; serum, mean ± S.E., n = 7-8) | TG, Day 19 ([2]; serum, mean ± S.E., n = 7-8) | bioavailability [3] | properties in in vivo diabetic rat model (diabetic rat model) | effect on fasting blood glucose ([2]; four days BID oral treatment) | effect on fasting serum insulin ([2]; four days BID oral treatment) | properties in in vivo animal models (in vivo animal models) |
| --- | --- | --- | --- | --- | --- | --- | --- | --- | --- | --- | --- | --- | --- | --- | --- | --- | --- | --- | --- | --- |
| NC1=NN(c2cccc(C(F)(F)F)c2)CC1 [BW 755c, 4,5-dihydro-1-(3-(trifluoromethyl)phenyl)-1H-pyrazol-3-amine] | significantly reduced | no effect | ameliorated | no effect | Neither of these effects was observed | 107.6 ± 3 mg/dL | 104.5 ± 2 mg/dL | 119 ± 7 mg/dL | 554 ± 71 μEq/L | 1.6 ± 0.3 ng/mL | 296 ± 31 mg/dL | 114 ± 7 mg/dL | 504 ± 42 μEq/L | 1.7 ± 0.3 ng/mL | 112 ± 20(^4) mg/dL | – | – | – | – | – |
| COc1cc(/C=C/C(=O)CC(=O)/C=C/c2ccc(O)c(OC)c2)ccc1O [Curcumin] | – | – | – | – | – | – | – | – | – | – | – | – | – | – | – | poorly bioavailable | hypolidemic properties | – | – | – |
| C[C@H](Cc1ccc(O)c(O)c1)[C@@H](C)Cc1ccc(O)c(O)c1 [NDGA, nordihydroguaiaretic acid] | significantly reduced | significantly lowered | ameliorated | without increasing serum glucose | significantly reduced | 118.6 ± 3 mg/dL | 98.3 ± 4(^7) mg/dL | – | 599 ± 51 μEq/L | 2.3 ± 0.3 ng/mL | 384 ± 48 mg/dL | 122 ± 8 mg/dL | 611 ± 101 μEq/L | 0.9 ± 0.1(′) ng/mL | 97 ± 6 mg·s/dL | poorly bioavailable | – | without significantly altering | significantly decreased | hypolipidemic and antihypertensive properties |

From patent publication US20040198800A1, “Lipoxygenase inhibitors as hypolipidemic and anti-hypertensive agents” (priority 2002, published 2004)
